Source: ChEMBL document CHEMBL4406823 (Eur J Med Chem, 2019)
Active and inactive are the calls of the source. No cut-off for these calls is given here.

Assays:
HeLa = assay: cells; settings: Homo sapiens, 72 h
Description: Antiproliferative activity against human HeLa cells assessed as inhibition of cell proliferation incubated for 72 hrs by MTT assay

MDA-MB-231 [1] = assay: Antiproliferative activity against human MDA-MB-231 cells assessed as inhibition of cell proliferation incubated for 72 hrs by MTT assay; assay type: functional, cell-based; settings: MDA-MB-231, 72 h
SEM cells = assay: Antiproliferative activity against human SEM cells assessed as inhibition of cell proliferation incubated for 72 hrs by MTT assay; assay type: functional, cell-based
MCF7 = assay: cells; settings: Homo sapiens, MCF7, 72 h
Description: Antiproliferative activity against human MCF7 cells assessed as inhibition of cell proliferation incubated for 72 hrs by MTT assay

HT-29 = assay: cells; settings: Homo sapiens, HT-29, 72 h
Description: Antiproliferative activity against human HT-29 cells assessed as inhibition of cell proliferation incubated for 72 hrs by MTT assay

HL-60 = assay: Antiproliferative activity against human HL60 cells assessed as inhibition of cell proliferation incubated for 72 hrs by MTT assay; assay type: functional, cell-based; settings: HL-60, 72 h
Tubulin = Tubulin (Bos taurus, UniProt Q6B856+Q862L2+Q862F3); assay: Inhibition of bovine brain tubulin assembly using GTP as substrate incubated for 20 mins by spectrophotometric method
Tubulin (Bos taurus) [2] = biological target: T1, Tubulin (Bos taurus) (UniProt Q6B856+Q862L2+Q862F3); assay: Displacement of [3H]-colchicine from bovine brain tubulin at 5 uM incubated for 1 hr by relative to control
Tubulin (Bos taurus) [3] = biological target: T1, Tubulin (Bos taurus); assay: Displacement of [3H]-colchicine from bovine brain tubulin at 0.5 uM incubated for 1 hr by relative to control
MDA-MB-231 [4] = assay: Induction of cell cycle arrest in human MDA-MB-231 cells assessed as increase in p21 protein expression level at 50 to 100 nM incubated for 24 to 48 hrs by western blot analysis; assay type: functional, cell-based
MDA-MB-231 [5] = assay: Induction of apoptosis in human MDA-MB-231 cells assessed as activation of PARP cleavage at 50 to 100 nM incubated for 48 hrs by Western blot analysis; assay type: functional, cell-based
[6] = Cytotoxicity against human quiescent PBL assessed as reduction in cell viability incubated for 72 hrs by MTT assay; assay type: cell-based
CCRF-CEM = assay: Antiproliferative activity against human CEM cells assessed as inhibition of cell growth incubated for 72 hrs by MTT assay; assay type: functional
MDA-MB-231 [7] = assay: Induction of ROS generation in human MDA-MB-231 cells at 50 to 100 nM incubated for 24 to 48 hrs by H2-DCFDA staining based flow cytometric method; assay type: functional, cell-based
MDA-MB-231 [8] = assay: Induction of cell cycle arrest in human MDA-MB-231 cells assessed as increase in accumulation of cells at G2/M phase at 100 nM incubated for 24 hrs by PI staining based flow cytometric analysis; assay type: functional
MDA-MB-231 [9] = assay: Induction of mitochondrial membrane depolarization in human MDA-MB-231 cells at 50 to 100 nM incubated for 24 to 48 hrs by JC1 staining based flow cytometric method; assay type: functional, cell-based
[10] = Cytotoxicity against PHA-stimulated human PBL assessed as reduction in cell viability incubated for 72 hrs by MTT assay; assay type: cell-based
MDA-MB-231 [11] = assay: Induction of apoptosis in human MDA-MB-231 cells assessed as reduction in Mcl1 protein expression at 50 to 100 nM incubated for 48 hrs by Western blot analysis; assay type: functional, cell-based
[12] = Antiproliferative activity against human CEM/VBL100 cells overexpressing P-gp assessed as inhibition of cell growth incubated for 72 hrs by MTT assay; assay type: functional; settings: CEM/VBL100, 72 h
MDA-MB-231 [13] = assay: Induction of apoptosis in human MDA-MB-231 cells at 50 nM incubated for 24 to 48 hrs by annexin V-FITC/propidium iodide staining-based flow cytometry analysis; assay type: functional, cell-based
MDA-MB-231 [14] = assay: Induction of cell cycle arrest in human MDA-MB-231 cells assessed as effect on cyclin B protein expression at 50 to 100 nM incubated for 24 to 48 hrs by western blot analysis; assay type: functional, cell-based
MDA-MB-231 [15] = assay: Induction of cell cycle arrest in human MDA-MB-231 cells assessed as reduction in accumulation of cells at S phase at 10 to 100 nM incubated for 24 hrs by PI staining based flow cytometric analysis; assay type: functional
MDA-MB-231 [16] = assay: Induction of cell cycle arrest in human MDA-MB-231 cells assessed as reduction in accumulation of cells at G1 phase at 10 to 100 nM incubated for 24 hrs by PI staining based flow cytometric analysis; assay type: functional
[17] = Cytotoxicity against human astrocytes assessed as reduction in cell viability incubated for 72 hrs by MTT assay; assay type: cell-based, Astrocyte
MDA-MB-231 [18] = assay: Induction of apoptosis in human MDA-MB-231 cells assessed as reduction in XIAP protein expression at 50 to 100 nM incubated for 24 to 48 hrs by Western blot analysis; assay type: functional, cell-based
E0771 = assay: Antitumour activity against mouse E0771 cells allografted in C57BL/6 mouse assessed as reduction in tumor mass at 30 mg/kg, ip administrated every other day by caliper method; assay type: functional, organism-based

Row | SMILES | IC50 (HeLa) [nM] | IC50 (MDA-MB-231 [1]) [nM] | IC50 (SEM cells) [nM] | IC50 (MCF7) [nM] | IC50 (HT-29) [nM] | IC50 (HL-60) [nM] | IC50 (Tubulin) [nM] | inhibition (Tubulin (Bos taurus) [2]) [%] | inhibition (Tubulin (Bos taurus) [3]) [%] | also measured
1 | COc1cc(-c2n[nH]cc2-c2cc(C)c(OC)c(C)c2)cc(OC)c1OC | > 10000 | > 10000 | 3340 | > 10000 | > 10000 | > 10000 | – | – | – | –
2 | COc1ccc(-c2c[nH]nc2-c2cc(OC)c(OC)c(OC)c2)cc1Cl | 1.4 | 21.5 | 2.4 | 1390 | 0.2 | 17 | 520 | 85 | – | –
3 | COc1ccc(-c2n[nH]cc2-c2cc(OC)c(OC)c(OC)c2)cc1 | 1.9 | 0.9 | 0.4 | 2.6 | 0.8 | 2.1 | 340 | 93 | 79 | –
4 | COc1cc(-c2n[nH]cc2-c2ccc3ccccc3c2)cc(OC)c1OC | 6.6 | 28.4 | 3.3 | 21.4 | 8.1 | 9.4 | 410 | 91 | 68 | –
5 | COc1cc(-c2n[nH]cc2-c2ccc(C)c(C)c2)cc(OC)c1OC | 35.9 | 2610 | 28.5 | 769 | 68.4 | 51.3 | 610 | 85 | – | –
6 | COc1cc(-c2n[nH]cc2-c2ccc(C(F)(F)F)cc2)cc(OC)c1OC | 227 | 523 | 187 | 4380 | 67.4 | 179 | – | – | – | –
7 | COc1cc(-c2n[nH]cc2-c2ccc(C)cc2)cc(OC)c1OC | 11.1 | 10.6 | 2.6 | 127 | 28.2 | 11.9 | 370 | 88 | – | –
8 | COc1ccc(-c2c[nH]nc2-c2cc(OC)c(OC)c(OC)c2)cc1F | 7.3 | 327 | 2.7 | 805 | 15.8 | 5.1 | 420 | 93 | 55 | –
9 | COc1cc(-c2n[nH]cc2-c2ccc(OC(F)(F)F)cc2)cc(OC)c1OC | 3380 | 5740 | 2470 | > 10000 | 2420 | 1750 | – | – | – | –
10 | COc1ccc(-c2c[nH]nc2-c2cc(OC)c(OC)c(OC)c2)cc1 | 6 | 8.6 | 1 | 16.6 | 10.5 | 4.4 | 370 | 86 | – | –
11 | CCOc1ccc(-c2c[nH]nc2-c2cc(OC)c(OC)c(OC)c2)cc1 | 0.05 | 4.5 | 0.2 | 1.5 | 0.3 | 3.2 | 360 | 95 | 69 | Activity (MDA-MB-231 [4]): Active; Activity (MDA-MB-231 [5]): Active; GI50 at 72 h [6]: 8700 nM; GI50 (CCRF-CEM): 0.4 nM; Activity (MDA-MB-231 [7]): Active; Activity (MDA-MB-231 [8]): Active; Activity (MDA-MB-231 [9]): Active; GI50 at 72 h [10]: > 10000 nM; Activity (MDA-MB-231 [11]): Active; GI50 [12]: 1.9 nM; Activity (MDA-MB-231 [13]): Active; Activity (MDA-MB-231 [14]): inactive; Activity (MDA-MB-231 [15]): Active; Activity (MDA-MB-231 [16]): Active; GI50 at 72 h [17]: > 10000 nM; Activity (MDA-MB-231 [18]): Active
12 | COc1cc(-c2n[nH]cc2-c2cc3ccccc3s2)cc(OC)c1OC | 1.7 | 2.5 | 0.5 | 1.4 | 7.4 | 2.3 | 300 | 93 | 69 | –
13 | CCc1ccc(-c2c[nH]nc2-c2cc(OC)c(OC)c(OC)c2)cc1 | 33.5 | 3270 | 18.7 | > 10000 | 41.3 | 23.3 | 520 | 85 | – | –
14 | CCCc1ccc(-c2c[nH]nc2-c2cc(OC)c(OC)c(OC)c2)cc1 | 361 | 1550 | 406 | 2790 | 541 | 553 | – | – | – | –
15 | COc1cc(-c2c[nH]nc2-c2ccc(C)cc2)cc(OC)c1OC | 25.2 | 262 | 14.7 | 700 | 44.4 | 31.4 | 570 | 86 | – | –
16 | CCOc1ccc(-c2c[nH]nc2-c2cc(OC)c(OC)c(OC)c2)cc1Cl | 1.6 | 6.9 | 1.4 | 4.5 | 4.2 | 1.5 | 390 | 90 | 62 | –
17 | COc1ccc(/C=C\c2cc(OC)c(OC)c(OC)c2)cc1O [COMBRETASTATIN A4] | – | 4.5 | 5.1 | – | – | – | – | – | – | –
18 | CCSc1ccc(-c2c[nH]nc2-c2cc(OC)c(OC)c(OC)c2)cc1 | 12.5 | 31.4 | 13.9 | 492 | 5.4 | 29.7 | 480 | 85 | – | –
19 | COc1cc(-c2n[nH]cc2-c2ccc(C)c(F)c2)cc(OC)c1OC | 26.2 | 481 | 23.5 | 1700 | 67.4 | 31 | 480 | 91 | 49 | –
20 | COc1ccc(/C=C\c2cc(OC)c(OC)c(OC)c2)cc1OP(=O)(O)O | – | – | – | – | – | – | – | – | – | inhibition (E0771): Active
21 | COc1cc(-c2n[nH]cc2-c2ccc(SC)cc2)cc(OC)c1OC | 28.7 | 3650 | 30.1 | > 10000 | 51.3 | 40.9 | 570 | 85 | – | –
22 | COc1ccc(-c2c[nH]nc2-c2cc(OC)c(OC)c(OC)c2)cc1C | 32.9 | 2680 | 17.2 | > 10000 | 37.3 | 17.7 | 440 | 81 | – | –
23 | COc1cc(-c2c[nH]nc2-c2cc(OC)c(OC)c(OC)c2)ccc1C | 287 | 5280 | 305 | > 10000 | 316 | 160 | – | – | – | –
